Laboratory results taken from US7135466B2 (Kirin Beer Kabushiki Kaisha, priority 1999, dated 2006).

The compounds below were run against T1, c-kit (Homo sapiens, UniProt P10721) (assay: Inhibitory activity against c-kit autophosphorylation (MO7e cells, h-SCF)). Details: MO7e cells, 50 ng/ml h-SCF; read-out: c-kit IC50.
T1 construct: MO7e (human megakaryocytic leukemia cell line) which had been arrested for 20 hr; endogenous in cells; host or cells: MO7e human megakaryocytic leukemia cell line
Type: cell-based
Description: Inhibitory Activity Against c-kit Autophosphorylation
MO7e (human megakaryocytic leukemia cell line) which had been arrested for 20 hr was seeded into 96 well plates at an amount of 2×10^5 per well. A solution of a test compound in DMSO was added, and a reaction was then allowed to proceed for one hr. Thereafter, the cells were stimulated by 50 ng/ml of h-SCF for 5 min, followed by replacement with lysate buffer to solubilize the cells.
Next, the solubilized cell sap was transferred to a 96-well plate with an anti-phosphotyrosine antibody (PY-20) previously immobilized thereon, and a reaction was allowed to proceed. Thereafter, the cells were reacted with an anti-c-kit antibody (c-19, Santa Cruz) as a primary antibody and were labelled with GAR (anti-rabbit IgG, horseradish peroxidase, Amersham) as a secondary antibody. Color development was then carried out in a peroxidase color development kit (Sumitomo Bakelite Co., Ltd.), and the absorbance was measured at a wavelength of 450 nm.

T1 sequence (P10721 26-976): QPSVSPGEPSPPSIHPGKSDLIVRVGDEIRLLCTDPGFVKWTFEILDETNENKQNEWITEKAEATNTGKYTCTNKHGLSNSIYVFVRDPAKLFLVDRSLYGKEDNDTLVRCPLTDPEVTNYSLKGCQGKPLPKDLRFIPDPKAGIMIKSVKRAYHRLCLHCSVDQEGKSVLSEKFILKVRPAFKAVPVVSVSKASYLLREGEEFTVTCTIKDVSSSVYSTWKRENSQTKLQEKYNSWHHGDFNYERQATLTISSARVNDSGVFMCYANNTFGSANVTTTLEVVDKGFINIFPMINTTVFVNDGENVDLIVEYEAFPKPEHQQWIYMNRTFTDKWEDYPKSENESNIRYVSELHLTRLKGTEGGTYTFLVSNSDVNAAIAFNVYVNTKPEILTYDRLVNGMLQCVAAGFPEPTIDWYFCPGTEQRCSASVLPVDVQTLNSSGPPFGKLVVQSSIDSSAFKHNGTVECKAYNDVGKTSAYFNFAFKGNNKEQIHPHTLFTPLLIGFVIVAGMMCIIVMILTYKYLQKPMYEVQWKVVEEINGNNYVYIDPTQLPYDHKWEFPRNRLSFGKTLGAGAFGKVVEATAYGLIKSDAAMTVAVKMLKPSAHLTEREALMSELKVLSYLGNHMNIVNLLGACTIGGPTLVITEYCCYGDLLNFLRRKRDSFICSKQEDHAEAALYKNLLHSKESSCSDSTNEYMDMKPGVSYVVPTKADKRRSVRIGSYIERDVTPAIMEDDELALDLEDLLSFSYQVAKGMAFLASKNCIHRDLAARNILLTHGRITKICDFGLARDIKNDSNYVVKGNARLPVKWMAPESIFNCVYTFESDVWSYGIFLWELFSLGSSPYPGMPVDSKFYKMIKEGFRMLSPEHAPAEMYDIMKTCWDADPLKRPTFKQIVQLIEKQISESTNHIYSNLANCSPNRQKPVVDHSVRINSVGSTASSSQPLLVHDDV

| IC50 | SMILES |
| --- | --- |
| 37 nM | COc1cc2nccc(Oc3ccc(OCCNc4ccc(C)cc4)cc3)c2cc1OC [Example 787, N-(2-{4-[(6,7-Dimethoxy-4-quinolyl)oxy]phenoxy}ethyl)-N-(4-methylphenyl)amine] |
| 135 nM | COc1ccc(NCCOc2ccc(Oc3ccnc4cc(OC)c(OC)cc34)cc2)cc1 [Example 781, N-(2-{4-[(6,7-Dimethoxy-4-quinolyl)oxy]phenoxy}ethyl)-N-(4-methoxyphenyl)amine] |

Same assay, conditions: MO7e cells, h-SCF 50 ng/ml; read-out: c-kit IC50

| SMILES | IC50 |
| --- | --- |
| COc1cc2nccc(Oc3ccc(NC(=O)Oc4ccccc4)cc3)c2cc1OC [Example 216, Phenyl N-{4-[(6,7-dimethoxy-4-quinolyl)oxy]phenyl}carbamate] | 19 nM |
| COc1cc2nccc(Oc3ccc(NC(=O)OCc4ccc(Cl)cc4)cc3)c2cc1OC [Example 229, 4-Chlorobenzyl N-{4-[(6,7-dimethoxy-4-quinolyl)oxy]phenyl}carbamate] | 47 nM |

Same assay, conditions: MO7e cells, h-SCF stimulation; read-out: c-kit IC50

| SMILES | IC50 |
| --- | --- |
| COc1cc2nccc(Oc3ccc(NC(=S)NC(=O)c4ccccc4Cl)cc3)c2cc1OC [Example 898, N-(2-Chlorobenzoyl)-N′-{4-[(6,7-dimethoxy-4-quinolyl)oxy]phenyl}thiourea] | 637 nM |
| COc1cc2nccc(Oc3ccc(NC(=S)NC(=O)CCCCl)cc3F)c2cc1OC [Example 1068, N-(4-Chlorobutanoyl)-N′-{4-[(6,7-dimethoxy-4-quinolyl)oxy]-3-fluorophenyl}thiourea] | 124 nM |
| COc1cc2nccc(Oc3ccc(NCCOc4ccccc4)cc3C)c2cc1OC [Example 875, N-{4-[(6,7-Dimethoxy-4-quinolyl)oxy]-3-methylphenyl}-N-(2-phenoxyethyl)amine] | 115 nM |
| COc1cc2nccc(Oc3ccc(NC(=S)NC(=O)c4cc(Cl)cc(Cl)c4)cc3F)c2cc1OC [Example 1015, N-(3,5-Dichlorobenzoyl)-N′-{4-[(6,7-dimethoxy-4-quinolyl)oxy]-3-fluorophenyl}thiourea] | 195 nM |
| COc1cc2nccc(Oc3ccc(NCCOc4ccccc4Cl)cc3C)c2cc1OC [Example 877, N-[2-(2-Chlorophenoxy)ethyl]-N-{4-[(6,7-dimethoxy-4-quinolyl)oxy]-3-methylphenyl}amine] | 219 nM |
| COc1cc2ncnc(Oc3ccc(NC(=S)NC(=O)c4cccc(C(F)(F)F)c4)cc3)c2cc1OC [Example 957, N-{4-[(6,7-Dimethoxy-4-quinazolinyl)oxy]phenyl}-N′-[3-(trifluoromethyl)benzoyl]thiourea] | 136 nM |
| COc1cc2nccc(Oc3ccc(NC(=S)NC(=O)c4sccc4C)c(F)c3)c2cc1OC [Example 1038, N-{4-[(6,7-Dimethoxy-4-quinolyl)oxy]-2-fluorophenyl}-N′-[(3-methyl-2-thienyl)carbonyl]thiourea] | 597 nM |
| COc1cc2nccc(Oc3ccc(NC(=S)NC(=O)c4cccc(C)c4)cc3F)c2cc1OC [Example 941, N-{4-[(6,7-Dimethoxy-4-quinolyl)oxy]-3-fluorophenyl}-N′-(3-methylbenzoyl)thiourea] | 145 nM |

The remaining lines, values ahead:

| IC50 | SMILES |
| --- | --- |
| 233 nM | COc1cc2nccc(Oc3ccc(NC(=S)NC(=O)C4CCCCC4)cc3)c2cc1OC [Example 1062, N-Cyclohexylcarbonyl-N′-{4-[(6,7-dimethoxy-4-quinolyl)oxy]phenyl}thiourea] |
| 668 nM | COc1cc2nccc(Oc3ccc(S(=O)(=O)CCOc4ccc(C(C)C)cc4)cc3)c2cc1OC [Example 835, 4-[(6,7-Dimethoxy-4-quinolyl)oxy]phenyl [2-(4-isopropylphenoxy)ethyl]sulfone] |
| 251 nM | COc1cc2ncnc(Oc3ccc(NC(=S)NC(=O)c4cccc(Cl)c4)cc3)c2cc1OC [Example 955, N-(3-Chlorobenzoyl)-N′-{4-[(6,7-dimethoxy-4-quinazolinyl)oxy]phenyl}thiourea] |
| 126 nM | COc1cc2nccc(Oc3ccc(NCCOc4ccc(F)cc4)cc3)c2cc1OC [Example 866, N-{4-[(6,7-Dimethoxy-4-quinolyl)oxy]phenyl}-N-[2-(4-fluorophenoxy)ethyl]amine] |
| 268 nM | COc1cc2nccc(Oc3ccc(SCCOc4ccc(F)cc4)cc3)c2cc1OC [Example 824, 4-(4-{[2-(4-Fluorophenoxy)ethyl]sulfanyl}phenoxy)-6,7-dimethoxyquinoline] |
| 132 nM | CCc1ccccc1OCCNc1ccc(Oc2ccnc3cc(OC)c(OC)cc23)cc1 [Example 861, N-{4-[(6,7-Dimethoxy-4-quinolyl)oxy]phenyl}-N-[2-(2-ethylphenoxy)ethyl]amine] |
| 181 nM | COc1cc2nccc(Oc3ccc(NC(=S)NC(=O)c4ccc(F)cc4F)cc3)c2cc1OC [Example 1006, N-(2,4-Difluorobenzoyl)-N′-{4-[(6,7-dimethoxy-4-quinolyl)oxy]phenyl}thiourea] |
| 532 nM | COc1cc2nccc(Oc3ccc(NC(=S)NC(=O)c4cccc(Cl)c4)c(F)c3)c2cc1OC [Example 938, N-(3-Chlorobenzoyl)-N′-{4-[(6,7-dimethoxy-4-quinolyl)oxy]-2-fluorophenyl}thiourea] |
| 289 nM | COc1cc2ncnc(Oc3ccc(NC(=S)NC(=O)c4ccccc4Cl)cc3)c2cc1OC [Example 928, N-(2-Chlorobenzoyl)-N′-{4-[(6,7-dimethoxy-4-quinazolinyl)oxy]phenyl}thiourea] |
| 130 nM | COc1cc2nccc(Oc3ccc(NCCOc4ccc(Cl)cc4)cc3)c2cc1OC [Example 859, N-[2-(4-Chlorophenoxy)ethyl]-N-{4-[(6,7-dimethoxy-4-quinolyl)oxy]phenyl}amine] |

Same assay, conditions: Mo7e, figure in parentheses in −( ); at 1000 nM

| inhibition at 1 µM | SMILES |
| --- | --- |
| 19% | COc1cc2nccc(Oc3ccc(NC(=S)NC(=O)c4c(Cl)cccc4Cl)cc3F)c2cc1OC [Example 1112, N-(2,6-Dichlorobenzoyl)-N′-{4-[(6,7-dimethoxy-4-quinolyl)oxy]-3-fluorophenyl}thiourea] |
| 32% | COc1cc2nccc(Oc3ccc(NC(=S)NC(=O)c4ccc(F)cc4)c(C)c3)c2cc1OC [Example 1093, N-{4-[(6,7-Dimethoxy-4-quinolyl)oxy]-2-methylphenyl}-N′-(4-fluorobenzoyl)thiourea] |
| 24% | COc1cc2nccc(Oc3ccc(NC(=S)NC(=O)c4c(Cl)cccc4Cl)c(F)c3)c2cc1OC [Example 1012, N-(2,6-Dichlorobenzoyl)-N′-{4-[(6,7-dimethoxy-4-quinolyl)oxy]-2-fluorophenyl}thiourea] |
| 32% | COc1cc2ncnc(Oc3ccc(NC(=S)NC(=O)c4ccc([N+](=O)[O-])cc4)cc3)c2cc1OC [Example 987, N-{4-[(6,7-Dimethoxy-4-quinazolinyl)oxy]phenyl}-N′-(4-nitrobenzoyl)thiourea] |
| 17% | COc1cc2nccc(Oc3ccc(NC(=S)NC(=O)c4ccco4)c(F)c3)c2cc1OC [Example 1035, N-{4-[(6,7-Dimethoxy-4-quinolyl)oxy]-2-fluorophenyl}-N′-(2-furylcarbonyl)thiourea] |
| 31% | COc1ccc(C(=O)NC(=S)Nc2ccc(Oc3ccnc4cc(OC)c(OC)cc34)c(Cl)c2)c(OC)c1 [Example 1117, N-{3-Chloro-4-[(6,7-dimethoxy-4-quinolyl)oxy]phenyl}-N′-(2,4-dimethoxybenzoyl)thiourea] |
| 33% | COc1ccc(C(=O)NC(=S)Nc2ccc(Oc3ncnc4cc(OC)c(OC)cc34)cc2)cc1 [Example 988, N-{4-[(6,7-Dimethoxy-4-quinazolinyl)oxy]phenyl}-N′-(4-methoxybenzoyl)thiourea] |

Same assay, conditions: Mo7e, figure within parentheses in −( ) or >1000( ); at 1000 nM

| inhibition at 1 µM | SMILES |
| --- | --- |
| 7% | COc1cc2ncnc(Oc3ccc(NC(=S)NCCCN4CCN(C)CC4)cc3)c2cc1OC [Example 536] |
